Key:
PAR1 = target: T1, PAR1 (Homo sapiens, UniProt P25116); settings: triple therapy of DAPT plus vorapaxar, cited from earlier work
T1 construct: Thrombin-Receptor Antagonist Vorapaxar in Acute Coronary Syndromes (TRACER) study; host or cells: patients of a clinical trial (Tricoci P, et al., 2012, N Engl J Med)
T1 sequence (P25116 22-425): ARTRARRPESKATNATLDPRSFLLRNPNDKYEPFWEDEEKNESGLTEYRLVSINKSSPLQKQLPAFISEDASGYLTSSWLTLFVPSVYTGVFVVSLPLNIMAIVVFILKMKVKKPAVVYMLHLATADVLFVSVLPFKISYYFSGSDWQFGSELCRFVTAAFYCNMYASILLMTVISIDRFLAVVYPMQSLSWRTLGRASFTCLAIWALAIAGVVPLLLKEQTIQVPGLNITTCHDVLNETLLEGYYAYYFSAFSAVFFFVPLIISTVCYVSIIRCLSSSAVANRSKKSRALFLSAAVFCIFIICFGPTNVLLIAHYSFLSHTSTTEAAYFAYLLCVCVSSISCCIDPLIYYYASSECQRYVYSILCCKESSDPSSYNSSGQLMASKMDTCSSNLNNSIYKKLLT

ERK5 in platelets = experiment: Platelet activation by FACS P-selectin expression after TRAP6 stimulation, with ERK5 inhibitor pre-incubation; format: cell-based, human; settings: platelets from healthy volunteers or NSTEMI patients; BIX 02189 0-100 μM, 30 minutes; TRAP6 10 μM, 15 minutes; P<0.05
Experimental: (FIG. 4A) All patients were given 325 mg aspirin at least 30 minutes prior to blood draw. Platelets were isolated from healthy volunteer subjects (control) or from patients with STEMI or NSTEMI. ERK5 activation was assessed by Western blotting using a phosphor-specific antibody (P-ERK5). A pan-ERK5 antibody was used to detect total ERK5 and the ratio (P-ERK5/ERK5) was used to report ERK5 activity as mean±SEM, n=10-13. *p<0.05 control vs. STEMI, **p=0.01 control vs NSTEMI. The molecular weight is indicated in kiloDaltons (kDa). (FIG. 4B) All patients were given 325-mg aspirin at least 30 minutes before blood draw. […] Platelet activation was assessed by fluorescence-activated cell sorting by P-selectin expression, mean fluorescence intensity (MFI)±SEM, all performed in quadruplicate in each group, n=4. *P<0.05 between NSTEMI/TRAP6 and NSTEMI/TRAP6+BIX 02189 and **P<0.05 control/TRAP6 and control/TRAP6+BIX 02189.
For each study subject, blood was obtained by a trained medical professional into citrate plasma tubes, then centrifuged in a tabletop centrifuge at 1100 rpm for 15 mins. […] This reaction was then stopped by adding 100 μL of 2% formalin to each reaction, and then quantification of platelet surface P-selectin was made possible using an Accuri Flow Cytometer (BD Biosciences) at 10K events per sample. […] Platelet surface p-selectin was quantified in quadruplicate using the geometric mean. […]

[1] = target: T2, platelet cyclooxygenase (COX) (Homo sapiens, UniProt P23219); experiment: Plasma TxB2 concentration by ELISA as marker of aspirin inhibition of platelet cyclooxygenase; format: in vivo; settings: STEMI and NSTEMI patients given 325 mg aspirin at least 30 min before blood draw, versus healthy volunteers not treated with aspirin
T2 construct: endogenous in cells; plasma TxB2 measured by ELISA
T2 sequence (P23219 24-599): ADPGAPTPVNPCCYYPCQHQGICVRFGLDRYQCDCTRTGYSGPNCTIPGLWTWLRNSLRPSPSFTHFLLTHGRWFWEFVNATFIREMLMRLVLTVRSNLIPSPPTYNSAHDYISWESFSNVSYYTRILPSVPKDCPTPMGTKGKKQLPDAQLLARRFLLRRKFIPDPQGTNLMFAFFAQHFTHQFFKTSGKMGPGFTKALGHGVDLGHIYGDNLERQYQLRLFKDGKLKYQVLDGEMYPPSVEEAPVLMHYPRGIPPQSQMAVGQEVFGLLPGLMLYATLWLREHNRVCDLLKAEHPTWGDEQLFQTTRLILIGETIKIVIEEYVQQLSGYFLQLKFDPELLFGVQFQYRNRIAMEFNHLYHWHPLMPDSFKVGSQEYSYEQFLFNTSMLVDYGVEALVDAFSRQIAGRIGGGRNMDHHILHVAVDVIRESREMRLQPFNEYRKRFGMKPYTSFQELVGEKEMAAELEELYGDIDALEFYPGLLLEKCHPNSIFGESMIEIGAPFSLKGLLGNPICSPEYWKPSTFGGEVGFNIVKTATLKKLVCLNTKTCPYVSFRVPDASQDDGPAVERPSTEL
Experimental: Blood was taken from patients immediately upon presentation with STEMI or NSTEMI and compared to healthy volunteer subjects. Each patient had been given 325 mg aspirin at least 30 mins prior to the blood draw. Plasma was isolated and biomarker concentration was evaluated by ELISA. Plasma TxB2 concentration served as a surrogate marker to assess for differences in efficacy of aspirin between groups, comparing this to healthy volunteer subjects (control) not taking aspirin. […] ELISA=Enzyme-Linked Immunosorbant Assay.
Each patient was treated with 325 mg aspirin in the ambulance, in the ED, or hospital least 30 minutes prior to blood draw.
Enzyme-linked immunosorbant assays (ELISAs) were conducted according to the manufacturer's instructions using the sandwich ELISA technique. […] The ELISA for plasma thromboxane B2 (cat#501020) was purchased from Cayman Chemicals.

CCOC(=O)N[C@@H]1CC[C@@H]2[C@@H](C1)C[C@H]1C(=O)O[C@H](C)[C@H]1[C@H]2/C=C/c1ccc(-c2cccc(F)c2)cn1 [vorapaxar]
relative reduction in the primary end point (PAR1; nonsignificant): 8%
bleeding (PAR1): trend toward clinically significant bleeding

CN(C)Cc1cccc(N/C(=C2\C(=O)Nc3cc(C(=O)N(C)C)ccc32)c2ccccc2)c1 [BIX 02189]
TRAP6-induced platelet activation (P-selectin expression, MFI) (ERK5 in platelets): prevents platelet activation

CC(=O)Oc1ccccc1C(=O)O [aspirin]
plasma TxB2 concentration [1]: decrease
